In BindingDB's records for doi:10.1021/jm061242y (Elan Pharmaceuticals, 2007):

Target: Beta-secretase 1 (Homo sapiens, UniProt P56817)
Experiment: BACE Enzyme Inhibition Assay
Conditions: pH 4.8; 37 °C
Description: Beta-cleavage ELISA assays were carried out in reaction buffer containing enzyme, substrate MBP-C125, and test compounds. Generated beta-cleaved product was detected using biotinylated Sw192 or biotinyated Wt192 as specific reporter antibodies and quantitated against the appropriate MBP-C125 standard.

Sequence of Beta-secretase 1 (P56817 whole entry): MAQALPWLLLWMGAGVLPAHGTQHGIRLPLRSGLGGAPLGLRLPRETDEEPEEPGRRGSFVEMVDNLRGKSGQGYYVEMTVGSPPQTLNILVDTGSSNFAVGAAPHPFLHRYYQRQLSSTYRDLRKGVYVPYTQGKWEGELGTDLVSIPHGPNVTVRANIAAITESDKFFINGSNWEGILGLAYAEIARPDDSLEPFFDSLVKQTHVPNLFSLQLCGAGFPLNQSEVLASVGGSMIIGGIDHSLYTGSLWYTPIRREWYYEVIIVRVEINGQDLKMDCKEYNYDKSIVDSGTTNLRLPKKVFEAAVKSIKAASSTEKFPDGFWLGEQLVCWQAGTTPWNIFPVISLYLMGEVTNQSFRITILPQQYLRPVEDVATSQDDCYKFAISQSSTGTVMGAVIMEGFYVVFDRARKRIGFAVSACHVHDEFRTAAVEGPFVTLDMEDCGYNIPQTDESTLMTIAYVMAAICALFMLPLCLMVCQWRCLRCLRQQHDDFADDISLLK

Row | Structure (SMILES) | IC50 [µM]
1 | CCCN(CCC)C(=O)c1cccc(C(=O)N[C@@H](Cc2cc(F)cc(F)c2)[C@@H](O)CN[C@@H](C)C(=O)NCC(C)C)c1 [N-[(1S,2S)-1-(3,5-difluorobenzyl)-2-hydroxy-3-({(1S)-1-methyl-2-[(2-methylpropyl)amino]-2-oxoethyl}amino)propyl]-N,N-dipropylbenzene-1,3-dicarboxamide] | 68
2 | CCCN(CCC)C(=O)c1cccc(C(=O)N[C@@H](Cc2cc(F)cc(F)c2)[C@@H](O)C[C@@H](C)C(=O)NCC(C)C)c1 | 0.03
